# Read-outs that look alike come from different tables or passages of the source.
# Legend:
# [1] = Metabolic stability in rat microsomes; assay type: in vitro ADME; conditions: 250 nM compound, NADPH, 37 °C
# Experimental: (§1) Pooled human and rat microsomes were prepared and stored at −80 °C prior to use. A master-mix containing microsome, phosphate buffer, and test compound (9 series) solution was made as follows: (1) 3 μL of microsome (20 mg/mL) was diluted with mixed 30 μL of potassium phosphate buffer (pH 7.4; 10×) and 246 μL of water; (2) 3 μL of 25 μM drug solution was added to the microsome; (3) the master solution was prewarmed at 37 °C for 5 min. NADPH solution A (15 μL) and NADPH solution B (3 μL) from Promega were added to the above-mentioned master solution to initiate the reaction. The final concentration of 9 compounds in the reaction system was 250 nM. An aliquot of 20 μL was pipetted from the reaction solution and stopped by the addition of 180 μL of cold MeCN containing 25 ng of Tamoxifen-(N,N-dimethyl-13C2)-15N as an internal standard at the designated time points (0, 5, 15, 30, 45, and 60 min). The incubation solution was vortexed-mixed (800 rpm/10 min) and centrifuged at 3500 rpm for 10 min to precipitate proteins. The supernatant was collected and used for the LC/MS/MS analysis. The natural log of the remaining percentage of the test compound was plotted against time and the gradient of the line was determined.
# [2] = Pharmacokinetics study in Sprague–Dawley rats; assay type: in vivo; conditions: rat
# ROS1 = ROS1 degradation in Ba/F3 cells (WES immunoblotting); assay type: cell-based; conditions: for DC50: concentration needed to reduce ROS1 protein by 50%, Ba/F3 cells; for Dmax (%) (ROS1): maximal degradation of ROS1 in Ba/F3 cells
# Method in brief: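 ROS1 and phospho-ROS1 (Tyr2274/2334) in Ba/F3 lysates quantified by capillary immunoassay (WES) with chemiluminescent detection, duplicate experiments. Levels expressed as AUC of the chemiluminescence peak.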
# Ba/F3 ROS1-G2032R = assay: Antiproliferation assay; assay type: cell-based, mouse; conditions: Ba/F3 cells, cell growth inhibition, 72 h
# Log P measurement = assay type: physicochemical
# Description: An important physicochemical property for a PROTAC molecule is its lipophilicity that largely dictates its pharmaceutical performance such as absorption, permeability, and distribution.
# [3] = tested on: Ba/F3 CD74-ROS1 non mutant; assay: Antiproliferation assay (Alamar Blue, 72 h); assay type: cell-based, mouse; conditions: Ba/F3 cells, cell growth inhibition
# [4] = Pharmacokinetics study in Sprague–Dawley rats; assay type: in vivo; conditions: rat; remark: listed apart in the source
# Experimental: Four to 6 weeks old Sprague–Dawley rats [Crl: CD (SD)] (SPF/VAF) were purchased from Charles River (Wilmington MA). Animals were quarantined/acclimated for 2–6 weeks prior to dose initiation. Sprague–Dawley rats were given oral administration of test compounds (20% PG, 5% Solutol, and 75% of 20% HP-β-CD in water) at different dose levels. After treatment with the compounds, whole blood was collected from each study animal by puncture of the tail vein (0.4 mL of whole blood from rats) into tubes containing K2EDTA at each time point. The plasma samples were divided into 2 aliquots (approximately equal in volume) and stored frozen at −75 ± 15 °C within 2 h of the collection until analysis.
# The stock solution of the test compound (0.01 M) in DMSO was prepared and stored at −20 ± 5 °C. The desired serial concentrations of working reference analyte solutions were achieved by diluting a stock analyte solution with 50% acetonitrile (0.1% formic acid) in water solution. The bioanalytical LC–MS/MS method was developed for quantitative determination of each test compound in Sprague–Dawley rat plasma with acceptable selectivity, sensitivity, calibration curve, precision, and accuracy. The analytical method is applicable for the determination of test compounds in Sprague–Dawley rat plasma with a lower limit of quantification of 10.0 ng/mL and an upper limit of quantification of 5000 ng/mL. Five microliters of diluted supernatant was injected into the LC–MS/MS system (TSQ Quantis) and a SynergiTM 4 μm Fusion-RP 80 Å (50 × 2 mm) column using gradient elution and a Triple Quad mass spectrometer) for quantitative analysis. The mobile phases used were 0.1% formic acid in deionized water and 0.1% formic acid in acetonitrile. The pharmacokinetic parameters T1/2 (the biological half-life), Cmax (maximal concentration), Tmax (time at which Cmax is observed), and AUC (area under the plasma concentration–time curve) were calculated from the plasma concentration versus time data using WinNonlin (PhoenixTM, version 8.1, Mountain View, CA, USA).
# [5] = Metabolic stability in human microsomes; assay type: in vitro ADME; conditions: 250 nM compound, NADPH, 37 °C
# Experimental: as §1
# [6] = tested on: Ba/F3 ROS1 (SLC34A2) G2032R-D2113G; assay: Antiproliferation assay; assay type: cell-based; conditions: Mus musculus, BaF3; Ba/F3 cell line
# Experimental: (§2) Ba/F3 immortalized murine bone marrow–derived pro-B cells were obtained from Creative Biogene (Shirley, NY) and cultured in RPMI supplemented with 10% FBS and IL3 (0.5 ng/mL). Ba/F3 cells expressing ROS1 variants were maintained in RPMI supplemented with 10% FBS and puromycin (0.7 mg/mL). Crizotinib, ceritinib, brigatinib, repotrectinib, and lorlatinib were purchased from MedChem Express. Each compound was dissolved in DMSO and serially diluted in RPMI for cell culture experiments.
# (§3) To assess the 72 h effect of drug treatment on cell proliferation, 2000 to 3000 cells were plated in replicates of three in 96-well plates. The plates were placed in an incubator at 37 °C, 5% CO2 for 72 h. Following drug treatments, the cells were incubated with the Alamar Blue Assay reagent (BioRad), 5 μL each well for 4 h at 37 °C and 5% CO2. Luminescence was measured on a multiplate reader and analyzed. […] IC50 values were determined using a nonlinear regression model with a sigmoidal dose response in GraphPad. The data were collected based on triplicate experiments, and presented as mean ± SD.
# [7] = tested on: Ba/F3 ROS1 (SLC34A2) G2032R-F2075C; assay: Antiproliferation assay; assay type: cell-based; conditions: Mus musculus, BaF3; Ba/F3 cell line
# Experimental: as §2, §3
# [8] = tested on: Ba/F3 ROS1 (SLC34A2) F2075C-G1837E; assay: Antiproliferation assay; assay type: cell-based; conditions: Mus musculus, BaF3; Ba/F3 cell line
# Experimental: as §2, §3
# [9] = tested on: Ba/F3 ROS1 (CD74) S1986F-G2032R; assay: Antiproliferation assay; assay type: cell-based; conditions: Mus musculus, BaF3; Ba/F3 cell line
# Experimental: as §2, §3
# (§4) cDNA encoding CD74-ROS1 or mutant CD74–ROS1 was cloned into retroviral expression vectors (pLenti), and viruses were generated in HEK293T cells by transfecting with packaging plasmids. The resulting virus was used to infect Ba/F3 cells. After retroviral infection, Ba/F3 cells were selected by incubation with puromycin (0.7 mg/mL) for 2 weeks. For Ba/F3 cells infected by the CD74–ROS1 variants, IL3 was withdrawn from the culture medium at least 2 weeks before the experiments.
# [10] = tested on: Ba/F3 ROS1 (CD74) S1986F-L2086F; assay: Antiproliferation assay; assay type: cell-based; conditions: Mus musculus, BaF3; Ba/F3 cell line
# Experimental: as §2, §3, §4
# Ba/F3 ROS1 (CD74) L2086F = assay: Antiproliferation assay; assay type: cell-based; conditions: Mus musculus, BaF3; Ba/F3 cell line
# Experimental: as §2, §3, §4
# Ba/F3 ROS1 (CD74) G2032R = assay: Antiproliferation assay; assay type: cell-based; conditions: Mus musculus, BaF3; Ba/F3 cell line
# Experimental: as §2, §3, §4
# [11] = tested on: Ba/F3 ROS1 (CD74) G2032R-L2086F; assay: Antiproliferation assay; assay type: cell-based; conditions: Mus musculus, BaF3; Ba/F3 cell line
# Experimental: as §2, §3, §4
# [12] = tested on: Ba/F3 ROS1 (CD74) S1986F-G2032R-L2086F; assay: Antiproliferation assay; assay type: cell-based; conditions: Mus musculus, BaF3; Ba/F3 cell line
# Experimental: as §2, §3, §4
# Ba/F3 ROS1 L2086F = assay: Antiproliferation assay; assay type: cell-based; conditions: Mus musculus, BaF3; Ba/F3 cells, cell growth inhibition
# Description: To assess targeted degradation of ROS1 fusion proteins, we first established a mouse pro-B cell line Ba/F3 as a model expressing the CD74-ROS1 oncogene or CD74-ROS1 with clinically observed secondary/tertiary mutations. The Ba/F3 cell line is dependent on interleukin-3 for survival and proliferation. Upon transduction of oncogenic ROS1, Ba/F3 cells become independent of interleukin-3 but dependent on the transduced driver gene. The Ba/F3 models have been effectively employed in the discovery and preclinical development of next generation ROS1 inhibitors.[11],[14],[15] We have tested ROS1 inhibitors against these Ba/F3 cells to validate their sensitivity and resistance to ROS1 inhibition.
# as §2, §3, §4
# [13] = tested on: Ba/F3 ROS1 (SLC34A2) V2098I; assay: Antiproliferation assay; assay type: cell-based; conditions: Mus musculus, BaF3; Ba/F3 cell line
# Experimental: as §2, with “Crizotinib, ceritinib, brigatinib, repotrectinib, and lorlatinib were purchased from MedChem Express.” left out
# as §3
# [14] = Sprague-Dawley [Crl: CD (SD)], plasma, 10 mg/kg po
compound,measurement,setting,value
"COc1cc(N2CCN(CC3CN(c4ccc5c(c4)C(=O)N(C4CCC(=O)NC4=O)C5=O)C3)CC2)ccc1Nc1ncc(Cl)c(Nc2ccccc2P(C)(C)=O)n1 (centres unmarked) [9b, 5-(3-((4-(4-((5-Chloro-4-((2-(dimethylphosphoryl)phenyl)amino)pyrimidin-2-yl)amino)-3-methoxyphenyl)piperazin-1-yl)methyl)azetidin-1-yl)-2-(2,6-dioxopiperidin-3-yl)isoindoline-1,3-dione]",metabolic stability in rat microsomes Clint,[1],13.8 µL/min/mg
same,metabolic stability in rat microsomes T1/2,[1],1.675 h
same,AUC (iv),[2]; 2 mg/kg iv,"50,451 h·ng/mL"
same,DC50,ROS1,10 nM
same,Dmax (%) (ROS1),ROS1,96%
same,IC50,Ba/F3 ROS1-G2032R,153 ± 20 nM
same,log P,Log P measurement,2.84
same,IC50,[3],13 ± 2 nM
same,AUC (po),[4]; 10 mg/kg po,"41,622 h·ng/mL"
same,Cmax,[4]; 10 mg/kg po,4582 ng/mL
same,T1/2,[4]; 10 mg/kg po,4.11 h
same,Tmax,[4]; 10 mg/kg po,3 h
same,% F,[4]; 10 mg/kg po vs 2 mg/kg iv,16.5%
same,metabolic stability in human microsomes Clint,[5],119.5 µL/min/mg
same,metabolic stability in human microsomes T1/2,[5],0.483 h
C[C@H]1CNC(=O)c2cnn3ccc(nc23)N[C@H](C)c2cc(F)ccc2O1 [repotrectinib],IC50,[6],25 ± 6.8 nM
same,IC50,[7],> 2000 nM
same,IC50,[8],0.4 ± 0.2 nM
same,IC50,[9],31.4 ± 7.3 nM
same,IC50,[10],> 2000 nM
same,IC50,Ba/F3 ROS1 (CD74) L2086F,588 ± 76 nM
same,IC50,Ba/F3 ROS1 (CD74) G2032R,23.5 ± 3.8 nM
same,IC50,[11],181 ± 22.5 nM
same,IC50,[12],> 2000 nM
same,IC50,Ba/F3 ROS1 L2086F,> 2000 nM
same,IC50,[13],3.5 ± 0.6 nM
"COc1cc(N2CCC(N3CCN(CC4CN(c5ccc6c(c5)C(=O)N(C5CCC(=O)NC5=O)C6=O)C4)CC3)CC2)ccc1Nc1ncc(Cl)c(Nc2ccccc2P(C)(C)=O)n1 (centres unmarked) [9e, 5-(3-((4-(1-(4-((5-Chloro-4-((2-(dimethylphosphoryl)phenyl)amino)pyrimidin-2-yl)amino)-3-methoxyphenyl)piperidin-4-yl)piperazin-1-yl)methyl)azetidin-1-yl)-2-(2,6-dioxopiperidin-3-yl)isoindoline-1,3-dione]","microsomal CLint at 1 h, 0.25 µM","[1]; rat, pooled rat microsomes, pH 7.4",12.8 µL/min/mg
same,"half-life at 1 h, 0.25 µM","[1]; rat, pooled rat microsomes, pH 7.4, read-out: metabolic stability in rat microsomes T1/2",1.8 h
same,AUC (iv),[2]; 1 mg/kg iv,"20,850 h·ng/mL"
same,DC50,ROS1,5.1 nM
same,Dmax (%) (ROS1),ROS1,97%
same,IC50,"Ba/F3 ROS1-G2032R; Mus musculus, BaF3",80 ± 27 nM
same,logP,Log P measurement,2.5
same,IC50,"[3]; Mus musculus, BaF3, 72 h",3.8 ± 0.2 nM
same,Cmax at 24 h,[4]; [14],3240 ng/mL
same,half-life,[4]; [14],7.7 h
same,bioavailability,"[4]; Sprague-Dawley [Crl: CD (SD)], plasma, 10 mg/kg po vs 1 mg/kg iv",12.2%
same,AUC,"[4]; Sprague-Dawley [Crl: CD (SD)], plasma, 10 mg/kg po, read-out: AUC (po)",25400 ng·h/mL
same,Tmax,"[4]; Sprague-Dawley [Crl: CD (SD)], plasma, 10 mg/kg po, read-out: Tmax",2 h
same,"microsomal CLint at 1 h, 0.25 µM","[5]; human, pooled human microsomes, pH 7.4",57 µL/min/mg
same,"half-life at 1 h, 0.25 µM","[5]; human, pooled human microsomes, pH 7.4, read-out: metabolic stability in human microsomes T1/2",1.01 h

# Source: paper PMC11513893, “Discovery of Oral Degraders of the ROS1 Fusion Protein with Potent Activity against Secondary Resistance Mutations” (Journal of Medicinal Chemistry, 2024)
